Source: ChEMBL document CHEMBL1201862, “PubChem BioAssay data set” (2004)
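48-hour exposure; five concentrations; linearly interpolated endpoints. GI50: concentration for 50% inhibition of growth.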 Active and inactive are the calls of the source. No stated cut-off is given here; in the data, active = GI50 up to about 1.1 µM and inactive = higher.

Columns and labels:
Test in all cases: NCI-60 cell line screen, 48 h
[1] = tested on: SK-MEL-5
[2] = tested on: COLO 205
[3] = tested on: OVCAR-5
[4] = tested on: A549
[5] = tested on: CCRF-CEM
[6] = tested on: UACC-62
[7] = tested on: DU-145
[8] = tested on: PC-3
[9] = tested on: Malme-3M
[10] = tested on: IGROV-1
[11] = tested on: NCI-H460
[12] = tested on: A498
[13] = tested on: HCT-116
[14] = tested on: MDA-MB-231
[15] = tested on: RPMI-8226
[16] = tested on: SK-MEL-2
[17] = tested on: Hs-578T
[18] = tested on: HCT-15
[19] = tested on: SNB-75
[20] = tested on: RXF 393
[21] = tested on: SF-539
[22] = tested on: UO-31
[23] = tested on: SR
[24] = tested on: NCI/ADR-RES
[25] = tested on: UACC-257
[26] = tested on: SW-620
[27] = tested on: TK-10
[28] = tested on: BT-549
[29] = tested on: SN12C
[30] = tested on: CAKI-1
[31] = tested on: HOP-92
[32] = tested on: KM12
[33] = tested on: SNB-19
[34] = tested on: MOLT-4
[35] = tested on: HT-29
[36] = tested on: U-251
[37] = tested on: HL-60
[38] = tested on: HCC 2998
[39] = tested on: SK-OV-3
[40] = tested on: 786-0
[41] = tested on: OVCAR-8
[42] = tested on: ACHN
[43] = tested on: SK-MEL-28
[44] = tested on: MCF7
[45] = tested on: M14
[46] = tested on: MDA-N
[47] = tested on: T47D
[48] = tested on: OVCAR-3
[49] = tested on: SF-268
[50] = tested on: SF-295
[51] = tested on: NCI-H522
[52] = tested on: EKVX
[53] = tested on: MDA-MB-435
[54] = tested on: K562
[55] = tested on: LOX IMVI
[56] = tested on: NCI-H226
[57] = tested on: OVCAR-4
[58] = tested on: NCI-H23
[59] = tested on: HOP-62

Measured: GI50

N=C(N)SCc1ccc(Cl)c2ccccc12.O=[N+]([O-])c1ccc(O)c([N+](=O)[O-])c1
inactive: [1] 8.61 µM | [2] 6.81 µM | [3] 13.5 µM | [4] 16.9 µM | [5] 3.23 µM | [6] 12.5 µM | [7] 12.9 µM | [8] 12.6 µM | [9] 10 µM | [10] 14.2 µM | [11] 7.55 µM | [12] 9.4 µM | [13] 13.4 µM | [14] 12.7 µM | [15] 1.32 µM | [16] 11.6 µM | [17] 20.7 µM | [19] 4.56 µM | [20] 8.02 µM | [21] 5.2 µM | [22] 12.3 µM | [24] 16.7 µM | [25] 4.19 µM | [26] 11.7 µM | [27] 6.84 µM | [28] 15.6 µM | [29] 11 µM | [30] 11.7 µM | [31] 6.67 µM | [32] 12.3 µM | [33] 16.2 µM | [34] 1.4 µM | [35] 11.4 µM | [36] 11.4 µM | [37] 2.82 µM | [38] 2.04 µM | [39] 15.3 µM | [40] 12.4 µM | [41] 22.1 µM | [42] 12.9 µM | [43] 12.6 µM | [44] 10 µM | [45] 13 µM | [46] 11.1 µM | [47] 5.35 µM | [48] 8.95 µM | [49] 15.4 µM | [50] 9.91 µM | [51] 7.78 µM | [52] 10.3 µM | [53] 8.24 µM | [55] 14.9 µM | [56] 12.4 µM | [57] 10.9 µM | [58] 12.6 µM | [59] 14.1 µM
active: [23] 1.04 µM | [54] 0.421 µM
14.5 µM: [18]

Cc1ccc(NC(=O)c2cc(S(=O)(=O)Nc3nc4cccnc4[nH]3)c(SSc3cc(Cl)c(C(=O)Nc4ccc(C)cc4)cc3S(=O)(=O)Nc3nc4cccnc4[nH]3)cc2Cl)cc1
inactive: [1] > 100 µM | [2] > 100 µM | [3] > 100 µM | [4] > 100 µM | [5] > 100 µM | [6] > 100 µM | [7] > 100 µM | [8] > 100 µM | [9] > 100 µM | [10] > 100 µM | [11] > 100 µM | [12] > 100 µM | [13] > 100 µM | [14] > 100 µM | [15] > 100 µM | [16] > 100 µM | [17] > 100 µM | [19] > 100 µM | [20] > 100 µM | [21] > 100 µM | [22] > 100 µM | [23] > 100 µM | [24] > 100 µM | [25] > 100 µM | [26] > 100 µM | [27] > 100 µM | [28] > 100 µM | [29] > 100 µM | [30] > 100 µM | [31] > 100 µM | [32] > 100 µM | [33] > 100 µM | [34] > 100 µM | [35] > 100 µM | [36] > 100 µM | [37] > 100 µM | [38] > 100 µM | [39] > 100 µM | [40] > 100 µM | [41] > 100 µM | [42] > 100 µM | [43] > 100 µM | [44] > 100 µM | [45] > 100 µM | [46] > 100 µM | [47] > 100 µM | [48] > 100 µM | [49] > 100 µM | [50] > 100 µM | [51] > 100 µM | [52] > 100 µM | [53] > 100 µM | [54] > 100 µM | [55] > 100 µM | [56] > 100 µM | [57] > 100 µM | [58] > 100 µM | [59] > 100 µM
> 100 µM: [18]
